Assay results published in article PMC7900953, “Location of a single histidine within peptide carriers increases mRNA delivery” (The Journal of Gene Medicine, 2020).

Columns and labels:
MDA‐MB‐231 cells [1] = assay: Cell viability assay (trypan blue exclusion); assay type: cell-based; settings: polymer alone (4 µg), 5 h in Opti-MEM, then DMEM/10% FBS 19 h
Procedure: MDA‐MB‐231 cells were seeded at 5.0 × 10^4 per well in a 24‐tissue culture plate and incubated overnight in DMEM supplemented with 10% fetal bovine serum (FBS) serum. The media was then changed to Opti‐MEM and the cells were treated with either the polymer (4 μg) or the polyplex (4 μg of HK; 1 μg of mRNA) for 5 hours. After the media was changed to DMEM/10% FBS for 19 hours, the cell viability was measured using the trypan blue cell exclusion assay (Trypan Blue solution, 0.4%; Sigma‐Aldrich, St Louis, MO, USA). ^41
After the medium was changed to Opti-MEM, either the polymer (4 µg) or the polyplex (4 µg HK; 1 µg mRNA) was added to the cells for 5 h. The media was then changed to DMEM/10% FBS for 19 h and the cell viability was determined using the trypan cell exclusion assay.

Acid–base titration = assay type: physicochemical; settings: 5 mg/ml, from pH 3.0, 5 μl aliquots of 0.05 M NaOH to about pH 9.0
Procedure: After the polymer solution [H2K4b, H3K4b, H3K(+H)4b and H4K4b] was adjusted to pH 3.0 (5 mg/ml; initial volume 1 ml), aliquots (5 μl) of NaOH (0.05 M) were stepwise added with the pH measured (FiveEasy™ meter; InLab Solids Pro‐ISM pH electrode; Mettler Toledo, Columbus, OH, USA). Titration was stopped at approximately pH 9.0.
FIGURE 2 Titration of different HK peptide solutions. Solutions of polymers (5 mg/ml) [H2K4b, H3K4b, H3K(+H)4b and H4K4b] were adjusted to pH 3 (initial volume 1 ml) and then 5‐μl aliquots of 0.05 N NaOH were stepwise added and the pH was measured

MDA‐MB‐231 cells [2] = assay: In vitro transfection of luciferase-expressing mRNA with HK polyplexes; assay type: cell-based; settings: for Effectiveness as carrier of mRNA: luciferase mRNA polyplexes; for Luciferase activity, RLU/µg-Protein: polyplex in Opti-MEM on cells 4 h, then DMEM/10% serum, luciferase 24 h later, mean ± SD
Procedure: Several HK peptides were examined for their ability to carry a luciferase‐expressing mRNA (CleanCap Firefly Luciferase mRNA; Trilink Biotechnologies, Inc., San Diego, CA, USA) into MDA‐MB‐231 cells (America Type Tissue Culture, Manassas, VA, USA). In brief, 3 × 10^4 cells were plated into a 24‐well plate containing 500 μl of Dulbecco’s modified Eagle’s medium (DMEM) and 10% fetal bovine serum (Thermo Fisher Scientific, Waltham, MA, USA). After 24 hours, when the cells were 60–80% confluent, the media in each well was changed to Opti‐MEM (Thermo Fisher Scientific). To prepare HK polyplexes, mRNA (1 μg) in 50 μl of Opti‐MEM was briefly mixed well with one of the HK peptides (4–12 μg) and maintained at room temperature for 30 minutes. This polyplex was then added dropwise to the cells. After 4 hours, the Opti‐MEM media was removed and replaced with 0.5 ml of DMEM/10% serum. Twenty‐four hours later, the cells were lysed, and luciferase activity (Promega Corporation, Madison, WI, USA) was measured. ^28 Also, a negative control (mRNA without the carrier) was added to the cells and luciferase activity measured 24 hours later.
FIGURE 1 Comparison of H3K(+H)4b and H3K4b peptides as carriers of mRNA. To form polyplexes, the mRNA (1 μg) was mixed with three different ratios of the HK (4, 8 and 12 μg) polymer for 30 minutes. The mRNA polyplexes were then added to the cells as described in the Materials and methods, and luciferase activity was measured 24 hours later. ***p < 0.001; ****p < 0.0001, H3K(+H)4b versus H3K4b
FIGURE 6 Comparing H3K(+H)4b and other four‐branched HK peptides for mRNA transfection. After polyplexes were formed with HK peptides (4 μg) and luciferase‐expressing mRNA (1 μg) and added to cells, luciferase activity was measured […] later. These HK peptides contained an additional histidine in the second motif.
FIGURE 7 Comparison of H3K(+H)4b with branched peptides without an additional histidine in the second motif. Polyplexes were formed with mRNA (1 μg) and various HK peptides (4 μg) and, after their addition to cells, luciferase activity was determined 24 h later. H3K(1+H)4b and H3K(3+H)4b peptides have an extra histidine in the first and third domains, respectively. H3K(1,3+H)4b has two additional histidines: one in the first and the other third motif. […] Unlike H3K(+H)4b, the predominant repeating motif of H2K4b in its branch is ‐HHK. ***p < 0.001, H3K(+H)4b versus H2K4b or H3K(1,3+H)4b; ****p < 0.0001, H3K(+H)4b versus H3K(1+H)4b or H3K(3+H)4b motifs
To prepare HK polyplexes, luciferase-expressing mRNA (1 µg) in 50 µl of Opti-MEM was briefly mixed with one of the HK peptides (4, 8, or 12 µg) and maintained at room temperature for 30 min. This polyplex was then added dropwise to the MDA-MB-231 cells and after four h, the Opti-MEM media was removed and replaced with DMEM/10% serum. Twenty-four hours later, luciferase activity was measured.

[3] = cited from earlier work
[4] = ratio 1:4 (wt:wt; mRNA:polymer; 1 µg mRNA, 4 µg HK)
[5] = ratio 1:8 (wt:wt; mRNA:polymer; 1 µg mRNA, 8 µg HK)
[6] = ratio 1:12 (wt:wt; mRNA:polymer; 1 µg mRNA, 12 µg HK)

Substance | % Viability (MDA‐MB‐231 cells [1]) [%] | Buffering profile from pH titration curves (Acid–base titration) | Luciferase expression relative to H3K4b peptide (MDA‐MB‐231 cells [2]; fold greater, ratio 4:1 (HK:mRNA; w:w)) [fold] | Effectiveness as carrier of mRNA (MDA‐MB‐231 cells [2]) | Luciferase activity, RLU/µg-Protein (MDA‐MB‐231 cells [2]; [4]) [RLU/µg-Protein] | Luciferase activity, RLU/µg-Protein (MDA‐MB‐231 cells [2]; [5]) [RLU/µg-Protein] | Luciferase activity, RLU/µg-Protein (MDA‐MB‐231 cells [2]; [6]) [RLU/µg-Protein] | Carrier of siRNA [3]
R = KHHHKHHHKHHHHKHHHK [H3K(+H)4b, four‐branched analogue of H3K4b with one extra histidine in the second ‐HHHK‐ motif] | 96.3 | minimal differences in their buffering profile | 10 | effective carriers of mRNA | 1532.9±122.9 | 1656.3±202.5 | 1033.4±197 | effective carriers of siRNA
R = KHHHKHHHKHHHKHHHK [H3K4b, four‐branched histidine‐lysine peptide with four ‐HHHK‐ motifs in each branch] | 95.6 | minimal differences in their buffering profile | – | not effective carriers of mRNA | 156.8±41.8 | 62.1±13.2 | 18.1±4.0 | effective carriers of siRNA
